# Test results: patent US20210177879A1, “VITAMIN D RECEPTOR AGONIST” (Guanghzou University of Chinese Medicine, priority 2018, published 2021)
# Assays:
# Type in all cases: in vivo, Balb/c mice
# [1] = test system: peripheral blood macrophages; test: Typing of peripheral blood macrophages by flow cytometry; conditions: compared with normal group
# Procedure: Experimental method: 90 Balb/c mice of 6-8 weeks were purchased from the Experimental Animal Center in Guangzhou University of Chinese Medicine, weighed about 18-22 g, and subjected to adaptive feeding for 10 days. Modeling was divided into three stages. In the first stage, except for the normal group of animals being given saline injection, each of the other animals were intraperitoneally injected with a carcinogen AOM (10 mg/kg), and given free access to 2% DSS water from the next day for 7 days, and then given access to replaced regular drinking water for 14 days. In the second stage, the animals were given free access to 2% DSS water for 10 days, and then given access to replaced regular drinking water for 14 days. In the third stage, the animals were given free access to 2% DSS water for 10 days, and then given access to replaced regular drinking water for 11 days. The normal group was given access to regular drinking water throughout the experiment. The diet, water drinking and body weights of the animals were recorded daily and DAI scores were made, and the animals were killed and harvested at the 10th week. In this experiment, the animals were divided into groups and administrated on the first day of a modeling period of the second stage, and the total number of groups was set to 5 groups. […] Dosing was conducted daily until dissection. […]
# [2] = test system: AOM/DSS colon cancer model; test: AOM/DSS colon cancer model, Experiment 1 (body weight, anal prolapse, organ coefficient, colon and tumor indexes)
# Procedure: Experimental method: 90 Balb/c mice of 6-8 weeks were purchased from the Experimental Animal Center in Guangzhou University of Chinese Medicine, weighed about 18-22 g, and subjected to adaptive feeding for 10 days. Modeling was divided into three stages. In the first stage, except for the normal group of animals being given saline injection, each of the other animals were intraperitoneally injected with a carcinogen AOM (10 mg/kg), and given free access to 2% DSS water from the next day for 7 days, and then given access to replaced regular drinking water for 14 days. In the second stage, the animals were given free access to 2% DSS water for 10 days, and then given access to replaced regular drinking water for 14 days. In the third stage, the animals were given free access to 2% DSS water for 10 days, and then given access to replaced regular drinking water for 11 days. The normal group was given access to regular drinking water throughout the experiment. The diet, water drinking and body weights of the animals were recorded daily and DAI scores were made, and the animals were killed and harvested at the 10th week. In this experiment, the animals were divided into groups and administrated on the first day of a modeling period of the second stage, and the total number of groups was set to 5 groups. The first group was a blank control group (Normal), in which a total of 12 animals were given access to drinking water by gavage; the second group was a model group (AOM/DSS), in which a total of 22 animals were given access to drinking water by gavage; the third group was a positive drug control group (5-ASA+AOM/DSS), in which a total of 22 animals were given access to 100 mg/kg of mesalazine (5-ASA) by gavage; and the fourth and fifth groups were monotropein-intervening groups (Mo+AOM/DSS), which were a high dose of 8 mg/kg and a low dose of 2 mg/kg, respectively, with 17 animals in each group. Dosing was conducted daily until dissection.
# (1) The calculation formula of a DAI score: DAI value=(score of weight loss+score of stool trait+score of blood in stool)/3.
# The animals were anesthetized and harvested, and the liver, spleen, thymus and testis were weighed to calculate the organ coefficient; the colon tissue was taken, measured with a ruler for the length, and measured with a vernier caliper for the thickness, and the number and size of tumors and degree of colonic ulceration and adhesion were recorded; respective tissues were cut into small pieces and fixed, and the remaining tissues were frozen and stored; and the fixed tissues were used for HE staining and immunohistochemistry.
# IL-6, IL-10, IL-1β = test: Determination of cytokines in intestinal tumor tissues by Elisa; conditions: vs model group; high-dose monotropein (8 mg/kg) and positive drug 5-ASA (100 mg/kg)
# Procedure: Experimental method: 90 Balb/c mice of 6-8 weeks were purchased from the Experimental Animal Center in Guangzhou University of Chinese Medicine, weighed about 18-22 g, and subjected to adaptive feeding for 10 days. Modeling was divided into three stages. In the first stage, except for the normal group of animals being given saline injection, each of the other animals were intraperitoneally injected with a carcinogen AOM (10 mg/kg), and given free access to 2% DSS water from the next day for 7 days, and then given access to replaced regular drinking water for 14 days. In the second stage, the animals were given free access to 2% DSS water for 10 days, and then given access to replaced regular drinking water for 14 days. In the third stage, the animals were given free access to 2% DSS water for 10 days, and then given access to replaced regular drinking water for 11 days. The normal group was given access to regular drinking water throughout the experiment. The diet, water drinking and body weights of the animals were recorded daily and DAI scores were made, and the animals were killed and harvested at the 10th week. In this experiment, the animals were divided into groups and administrated on the first day of a modeling period of the second stage, and the total number of groups was set to 5 groups. […]
# The intestinal tumor tissues frozen and stored at −80° C. were taken and homogenized, and the homogenate was determined with a BCA kit for the total protein concentration thereof. The homogenate was diluted by 20 times and then determined by Elisa method for cytokines: IL-6, IL-10, and IL-1β. […]
# intestinal permeability = test: Determination of intestinal permeability in serum with FITC-dextran; conditions: after third stage of modeling; monotropein high and low doses, 5-ASA 100 mg/kg
# Procedure: Experimental method: 90 Balb/c mice of 6-8 weeks were purchased from the Experimental Animal Center in Guangzhou University of Chinese Medicine, weighed about 18-22 g, and subjected to adaptive feeding for 10 days. Modeling was divided into three stages. In the first stage, except for the normal group of animals being given saline injection, each of the other animals were intraperitoneally injected with a carcinogen AOM (10 mg/kg), and given free access to 2% DSS water from the next day for 7 days, and then given access to replaced regular drinking water for 14 days. In the second stage, the animals were given free access to 2% DSS water for 10 days, and then given access to replaced regular drinking water for 14 days. In the third stage, the animals were given free access to 2% DSS water for 10 days, and then given access to replaced regular drinking water for 11 days. […] The diet, water drinking and body weights of the animals were recorded daily and DAI scores were made, and the animals were killed and harvested at the 10th week. […] 25 μl of serum was taken and added with 100 μl PBS, and determined on a microplate reader for its fluorescence intensity, where the wavelength of the exciting light was 480 nm, and the wavelength of the emitting light was 520 nm. A standard curve was made and the sample concentration was calculated.
compound,measurement,setting,value
"Nc1ccc(O)c(C(=O)O)c1 [5-ASA, mesalazine, reference compound]",M1/M2 ratio of peripheral blood macrophages,[1],significantly reduced
same,spleen enlargement caused by AOM/DSS modeling (organ coefficient),"[2]; monotropein high (8 mg/kg) and low (2 mg/kg) doses, 5-ASA 100 mg/kg",has no such effect
same,anal prolapse occurrence at the third stage of modeling,"[2]; per group, monotropein 8 mg/kg and 2 mg/kg groups (17 animals each), 5-ASA 100 mg/kg (22 animals), gavage daily, model group 8-12",8-12 animals
same,level of IL-10 in tumor tissues,"IL-6, IL-10, IL-1β",no significant differences
same,intestinal permeability (FITC-dextran in serum) vs model group,intestinal permeability,not statistically significant
